From patent US20160115447A1, “COMPOSITIONS AND METHODS FOR IMPROVING INDUCED NEURON GENERATION” (PRESIDENT AND FELLOWS OF HARVARD COLLEGE, priority 2013, published 2016)
Read-outs that look alike come from different tables or passages of the source.

How the values were obtained:
mouse adult fibroblasts = test: transcription factor-mediated conversion of mouse adult fibroblasts into Hb9::GFP+ spinal motor neurons (iMN conversion screen); assay type: cell-based; details: days 1-5, 6-10 or 11-15 of reprogramming, FIG. 4
Excerpt: FIGS. 1A and 1B illustrate the screens performed to identify small molecule enhancers of induced motor neuron (iMN) conversion. FIG. 1A is a schematic illustration depicting the primary screen for small molecules enhancers of iMN conversion via viral transduction with 7 transcription factors performed on fibroblasts harvested from 2 month old Hb9::GFP mice. FIG. 1B is a graphical illustration depicting the results of a secondary screen performed on the top hits identified by the primary screen depicted in FIG. 1A, pointing to two lead compounds as effective enhancers of iMN conversion.
To this end, a functional reprogramming screen was used to identify small molecules that increase the rate of transcription factor-mediated conversion of mouse adult fibroblasts into Hb9::GFP+ spinal motor neurons (FIGS. 1A and 1B). An inhibitor of Activin-like kinases 4/5/7 (FIG. 2A) and a Polo-like kinase I (PLK1) inhibitor (FIG. 2B) each increased induced motor neuron formation by 5-10-fold (FIG. 3). In combination, the chemicals increased the rate of induced motor neuron formation by 50-fold (FIG. 3).

[1] = system: fibroblasts transduced with Ascl1, Myt1l, and Brn2
Excerpt: To determine if Activin inhibition increases conversion into other neuronal types, fibroblasts were transduced with Ascl1, Myt1l, and Brn2, transcription factors that induce the formation of non-motor neurons, and cultured the cells with or without the Activin inhibitor.

[2] = system: Hb9::GFP+ intermediates exhibiting a non-neuronal morphology; details: FIG. 6
human fibroblasts = details: FIG. 7

| SMILES | effect on iMN conversion by time of administration (pulse treatments) (mouse adult fibroblasts) | effect on iMN conversion by time of administration (pulse treatments) (mouse adult fibroblasts; listed as PLK1 inhibitor) | induced neuron (iN) conversion ([1]; FIG. 9) | increase of the number of neurons generated ([1]; with versus without the Activin inhibitor) [fold] | survival of Hb9::GFP+ intermediates [2] | survival of FACS-sorted iMNs (FACS-sorted iMNs; SOD1G93A motor neurons, FIG. 5B) | survival of FACS-sorted iMNs (FACS-sorted iMNs; wild-type (WT) motor neurons, FIG. 5A) | generation of patient specific human iMNs (human fibroblasts) | effect on iMN conversion by time of administration (pulse treatments) (mouse adult fibroblasts; listed as Activin inhibitor) |
| --- | --- | --- | --- | --- | --- | --- | --- | --- | --- |
| CC[C@@H]1C(=O)N(C)c2cnc(Nc3ccc(C(=O)NC4CCN(C)CC4)cc3OC)nc2N1C1CCCC1 [BI 2536, 4-[[(7R)-8-cyclopentyl-7-ethyl-5-methyl-6-oxo-7H-pteridin-2-yl]amino]-3-methoxy-N-(1-methylpiperidin-4-yl)benzamide] | improved conversion only during days 6-10 | only active during days 6-10 |  |  |  |  |  |  |  |
| Cc1cccc(-c2[nH]ncc2-c2ccc3ncccc3n2)n1 [RepSox] | improved iMN conversion regardless of the time it is added to the culture medium |  | enhances induced neuron (iN) conversion | 10 | promotes survival | promotes survival | promotes survival | promotes generation | effective when administered from days 1-5, 6-10, or 11-15 |
